Laboratory results published in patent publication US20070155693A1, “Inhibitor of cancer bone metastasis” (ORIENT CANCER THERAPY CO., LTD., priority 2004, published 2007).

Legend:
prostate cancer = assay: Clinical cases: prostate cancer markers PSA and PAP; format: in vivo, human; settings: Example 1, prostate cancer and ischial bone metastasis; Iressa added to NITC
Procedure: Abbreviations expressed were based on each general expression way.
(§1) A prostate cancer patient having been diagnosed as ischial bone metastasis received the hormone therapy of Casodex and Leuplin. NITC was started on Jun. 11, 200X. […] On Sep. 18, 200X, severe low back pain and left hip joint and hip (ischial bone metastasis) pains were appeared, so morphine (MS Contin 40 mg/day) was used. From Oct. 29, 200X, Iressa 1T (250 mg/day) was started to use. Two months after the administration of Iressa, as the pains in low back, left hip joint and hip were alleviated, the administration of MS Contin decreased to 20 mg/day.
(§2) From Jul. […] From Aug. 17, 200X, Iressa 1T (250 mg/day) was initiated. […] Currently, Iressa is only temporarily and orally administered as a painkiller, when pain appears.

[1] = tested on: non-small cell lung cancer and prostate cancer; settings: clinical data; cited from earlier work
bone metastasis = assay: Clinical cases: bone metastasis marker 1CTP; format: in vivo, human; settings: Example 1, prostate cancer and ischial bone metastasis; Iressa added to NITC
Excerpt: Effects of inhibiting bone metastasis were confirmed by the variation of 1CTP which is a bone metastasis marker. 1CTP has been practically used as a specific marker for bone resorption and there is, for example, 1CTP kit supplied by Orion (Clin. Chem. 39: 635-640, 1993). The kit uses a decalcified human thigh bone, which is degraded and purified in vitro by a purified bacterial collagenase, as an antigen (1CTP), to immunize a rabbit to produce an antibody, and the antigen is labeled with ^125I to make competitive radioimmunoassay (RIA). Its measuring sensitivity is 0.5 ng/ml or less and the measurement is possible to at least 50 ng/ml. Further, the mean value in blood level of 287 cases from 25-year old to 72-year old is 3.00±1.12 ng/ml (average±S.D.). 1CTP in blood has shown abnormal values in various metabolic bone diseases such as bone metastasis and hyperparathyroidism by now, and further has also been recognized to correlate with therapeutic process. The kit to measure 1CTP is a known clinical diagnosis one, and there is a RIA kit, pyridinoline 1CTP “Chugai” manufactured by Chugai Diagnostics Science Co., Ltd. Specifically, it is a radioimmunoassay reagent using ^125I as a label. However, other well known reagents such as enzyme immunoassay reagent using an enzyme labeling and fluorescence immunoassay reagent using a fluorescent substance can of course be applied. […]

bone metastasis pain = assay: Clinical cases: pain from bone metastasis; format: in vivo, human; settings: for generalized bone pain: morphine 240 mg/day, Leuplin hormone therapy, Iressa 250 mg/day
Procedure: as §1, §2

COc1cc2ncnc(Nc3ccc(F)c(Cl)c3)c2cc1OCCCN1CCOCC1 [Iressa]
PSA and PAP (prostate cancer markers) (prostate cancer): kept decreasing significantly
CR (complete remission) [1]: almost nothing
1CTP (bone metastasis marker) (bone metastasis): the increase of 1CTP also terminated, showing a tendency to decrease
pains in low back, left hip joint and hip (bone metastasis pain; Example 1, two months after the administration of Iressa 250 mg/day): alleviated
effect as painkiller compared with morphine (bone metastasis pain; Example 2): stronger effect than morphine
pains after dose reduction (bone metastasis pain; Example 2, Iressa decreased to 250 mg/alternate day and 250 mg/three days): pains disappeared
generalized bone pain (bone metastasis pain; Example 2): alleviated significantly

CCNC(=O)[C@@H]1CCCN1C(=O)[C@H](CCCNC(=N)N)NC(=O)[C@H](CC(C)C)NC(=O)[C@@H](CC(C)C)NC(=O)[C@H](Cc1ccc(O)cc1)NC(=O)[C@H](CO)NC(=O)[C@H](Cc1c[nH]c2ccccc12)NC(=O)[C@H](Cc1c[nH]cn1)NC(=O)[C@@H]1CCC(=O)N1 [Leuplin]
generalized bone pain (bone metastasis pain; Example 2): the pain was not weakened

CN1CC[C@]23c4c5ccc(O)c4O[C@H]2[C@@H](O)C=C[C@H]3[C@H]1C5 [morphine]
generalized bone pain (bone metastasis pain; Example 2): could not alleviate the pain
